Values quoted from earlier work as cited in US20080045583A1, “STABLE LEVETIRACETAM COMPOSITIONS AND METHODS” (priority 2006, published 2008).

Settings: oral, with or without food

- bioavailability, effect of food: not affected by food
SMILES: CC[C@@H](C(N)=O)N1CCCC1=O [Levetiracetam, (−)-(S)-α-ethyl-2-oxo-1-pyrrolidine acetamide]
